Our source for the EC50 and Hill coefficient values is US12460215B2, “Bacillus expression system” (WILLIAM MARSH RICE UNIVERSITY, priority 2018, dated 2025).

Assay [1] deals with LacI lactose operon repressor (SEQ ID NO 11), Phy-spank system (sfgfp reporter). The assay can be described thus: IPTG dose response of the Phy-spank inducible promoter system (steady state transfer function, sfGFP fluorescence by flow cytometry). The class given is cell-based, B. subtilis PY79. The conditions noted are these: Hill function fit. The source says: (§1) FIG. 1E sfGFP Fluorescence from LacI-T7 and Phy-spank as a function of IPTG concentration.
Phy-spank is a variant of the IPTG-inducible promoter Pspac optimized for higher expression and dynamic range, and is perhaps the most widely used B. subtilis inducible promoter system. We constructed a second B. subtilis strain wherein sfgfp* was expressed under the control of Phy-spank, RiboJ, and RBS MF001 to compare its performance to that of LacI-T7.
Next, we measured the steady state transfer function of both systems by growing the corresponding strains under different concentrations of IPTG. In both cases, sfGFP fluorescence increases as a function of IPTG concentration in a manner well-approximated by a Hill function (FIG. 1E). […]
(§2) The sfGFP fluorescence distribution of each culture was measured using a BD FACScan flow cytometer with an excitation source of 488 nm and an emission window of 510/21 nm. […] A suspension of calibration beads (Spherotech® RCP-30-5A) in PBS was measured with each experiment. […]
Cell populations were gated by forward scatter/side scatter density (not shown) retaining 50% of the total number of events. Next, fluorescence of each gated event in arbitrary units was converted into standardized MEFL values using the calibration bead data. […] Numerical sfGFP fluorescence values of every sample and replicate can be found in Table 1.
In general terms: In flow cytometry, cells or beads pass a laser one at a time.

Assay [2] concerns LacI lactose operon repressor (SEQ ID NO 11), LacI-T7 system (Phy-spank-T7 RNAP / PT7lac, sfgfp reporter). The assay can be described thus: IPTG dose response of the LacI-T7 inducible promoter system (steady state transfer function, sfGFP fluorescence by flow cytometry). The class given is cell-based, B. subtilis PY79. The following applies: Hill function fit.
From the text: as §1
Next, we measured the steady state transfer function of both systems by growing the corresponding strains under different concentrations of IPTG. In both cases, sfGFP fluorescence increases as a function of IPTG concentration in a manner well-approximated by a Hill function (FIG. 1E).
For each experiment, an overnight LB culture was started from the freezer stock of each relevant strain. The next day, saturated cultures (OD600˜3) were diluted 10^5-fold in M9. […]
as §2
Cell populations were gated by forward scatter/side scatter density (not shown) retaining 50% of the total number of events. Next, fluorescence of each gated event in arbitrary units was converted into standardized MEFL values using the calibration bead data. The total cellular fluorescence of each culture sample was then obtained by calculating the median MEFL fluorescence of all gated events in that sample. […] Numerical sfGFP fluorescence values of every sample and replicate can be found in Table 1.

The mark [3] stands for this setting: Bacillus subtilis, IPTG detection threshold, sfGFP fluorescence, read-out: 50% activation concentration.
The mark [4] stands for this setting: sfGFP fluorescence as a function of IPTG concentration.

Each structure is given as a SMILES string.

What is called Hill coefficient is a measure of the steepness of the concentration-response curve. In the case of `CC(C)S[C@@H]1O[C@H](CO)[C@H](O)[C@H](O)[C@H]1O` [IPTG, Isopropyl β-D-1-thiogalactopyranoside], the EC50 turned out to be 50.2 ± 1.5 µM in assay [1] (setting [3]) and 54.1 ± 1.6 µM in assay [2] (setting [3]). In addition, the values for the Hill coefficient in assay [1] (setting [4]) and in assay [2] (setting [4]) were 2.120±0.033 and 3.377±0.051, respectively.
